Reference: patent US20170258871A1, “COMBINED USE OF A TRKA INHIBITOR AND AN EPHA2 INHIBITOR FOR USING IN THE TREATMENT OF SOLID CANCERS, AND METHOD FOR THE PROGNOSIS OF SURVIVAL OF A PATIENT WHO HAS A SOLID CANCER” (UNIVERSITE DES SCIENCES ET TECHNOLOGIES DE LILLE, priority 2014, published 2017)

Tests used:
Assay type in all cases: cell-based
PC3 cells = test: In vitro invasion test (Boyden chamber), PC3
Procedure: (§1) (0.5 nM) for a period of 20 hours. The untreated cells represent the control and determine a base invasion of 100%.
(§2) FIG. 3: A study of the involvement of EphA2 on the pro-invasive effects of proNGF. The invasion test is carried out on cells MDA-MB-231 (A), DU145 (B) and PC3 (C) transfected with a siRNA against EphA2 (siEphA2), TrkA (siTrkA) or a random siRNA (siCTRL). The transfected siCTRL cells are treated to provide a control and determine a base invasion of 100% (white column). […] The efficacy of the siRNA is measured by the western blot method through the use of specific antibodies against TrkA, EphA2, and actin (load control).
The Boyden Chambers (Transwell®; BD Biosciences; France) were recovered from a biological matrix (type 1 collagen from rats diluted to 400 μg·mL-1 in EMEM-0.1% FCS medium; Millipore). The cells were then seeded with 100,000 cells/well on PET membranes (polyethylene terephtalate; dia.: 10.5 mm; porosity: 8 μm) of Boyden Chambers and held in an EMEM-0.1% FCS medium. […] (0.5 nM) in the lower part. […] The number of cells was estimated after staining with Hoechst 33 258 (1 mM; 30 min; 20° C.) by counting the nuclei thereof using fluorescence microscopy on a total of 5 five randomly chosen fields (lens 10×; λ-excitation: 345 nm; λ-emission: 478 nm; Eclipse Ti) using the ImageJ software. […]

MDA-MB-231 cells = test: In vitro invasion test (Boyden chamber), MDA-MB-231
Procedure: as §1, §2
FIG. 10: Study on the effect of lestaurtinib (TrkA inhibitor) and EphrinA1-Fc (EphA2 inhibitor) and combination of treatment on invasion of breast cancer cells. […] Non-stimulated cells (“non stim”) of proNGF served as the control and determined a base invasion of 100% (white bar).
The Boyden Chambers (Transwell®; BD Biosciences; France) were recovered from a biological matrix (type 1 collagen from rats diluted to 400 μg·mL-1 in EMEM-0.1% FCS medium; Millipore). […] The number of cells was estimated after staining with Hoechst 33 258 (1 mM; 30 min; 20° C.) by counting the nuclei thereof using fluorescence microscopy on a total of 5 five randomly chosen fields (lens 10×; λ-excitation: 345 nm; λ-emission: 478 nm; Eclipse Ti) using the ImageJ software. […]

Akt = test: Western blot of Akt phosphorylation in MDA-MB-231 cells
Procedure: (§3) FIG. 8: A study of the role of TrkA and EphA2 in the activation of proteins Akt and Src. Cells MDA-MB-231 were respectively treated with a TrkA inhibitor (K252a), an anti-EphA2 siRNA (siEphA2), an inhibitor of PI3-K (LY294002) and an inhibitor of Src (SKI-1).
(§4) A and D. Cells MDA-MB-231 HA-TrkA were treated with proNGF N.C. […] The phosphorylation of Akt and Src was determined by using phospho-specific antibodies. The equal charge was verified using Akt and Src antibodies.
(§5) C and F. The phosphorylation of Akt and Src was determined in the total lysates coming from cells MDA-MB-231 transfected with siEphA2 and treated for 30 minutes with proNGF N.C. (C) or NGF (F).
(§6) After treatment, the cells were lysed (lysis buffer: 40 mM HEPES pH 7.5; 1 mM EDTA pH 8.0; 120 mM NaCl; 10 mM NaPPi; 50 mM NaF; 1.5 mM Na3VO4; 1% Triton X 100; 0.1% SDS; 1 mM PMSF; 10% glycerol and 1/100 th of protease inhibitor cocktail (Sigma) (20 min; 4° C.)). The lysates were recovered and clarified by centrifugation (12,000 g; 10 min; 4° C.). The supernatant was then stored at −80° C. until use. The protein extracts were diluted to 2 μg·μL−1 in a Laemmli 1× buffer (7 min; 100° C.) then deposited and separated on SDS-PAGE (concentration gel 3.6% acrylamide and separation gel 7.5% to 10% acrylamide (thickness 1 mm); 180 V; 10 min then 200 V constant; until output of the migration front). The proteins separated by SDS-PAGE were transferred according to the semi-dry transfer method (buffer: 48 mM Tris base, 39 mM glycine, 1.64 mM SDS, 20% methanol (v/v); 14 V; 15 min per gel) or liquid (buffer: 25 mM Tris base and 192 mM glycine; 15% methanol (v/v); 100 V; 30 min) on nitrocellulose membranes (0.45 μm; Whatman; Germany) or PVDF (0.45 μm; Immobilon P; Millipore; France). The PVDF membrane was “activated” beforehand (methanol; 10 min; 20° C.). The membranes were then saturated (TBS-T; 5% BSA; 1 h; 20° C.) then incubated (16 h; 4° C.) with the chosen primary antibody. […] The membranes were placed in an image analyser (LAS 4000; Fuji) connected to a computer which allowed image generation (software Image Reader LAS 4000).
(§7) The antibody against EphA2 was sc-924 (Santa Cruz), the antibody against sortilin was BD Bioscience 612101, the antibody against TrkA was sc 14024 (Santa Cruz), the antibody against HA was MMS-101R (Covance), the antibody against Akt was Cell Signaling 4691, the antibody against phospho-Akt (Ser 473) was Cell Signaling 9271, the antibody against Src was Cell Signaling 2109 (WB), the antibody against PhosphoSrc (Tyr416) was Cell Signaling 2105 and the antibody against actin was Sigma A2066.
(§8) Proteins Akt and Src were both involved in the pro-invasive effect of proNGF. In order to identify the role of TrkA and EphA2 in the activation of proteins Akt and Src, cells MDA-MB-231 were treated respectively with a TrkA inhibitor (K252a), an anti-EphA2 siRNA (siEphA2) the sequence of which is presented in table 1, a PI3-K inhibitor (LY294002) (the activation of Akt in effect underlies that of PI3-K) and an inhibitor of Src (SKI-1).

Src = test: Western blot of Src phosphorylation in MDA-MB-231 cells
Procedure: as §3, §4, §5, §6, §7, §8

[1] = NGF 16 nM or proNGF N.C. 0.5 nM, untreated cells = 100%
[2] = siRNA transfection vs siCTRL, proNGF
[3] = NGF 30 min, 10 nM K252a or siEphA2

Substance | cell invasion under growth factor (PC3 cells; [1]) | cell invasion under growth factor (MDA-MB-231 cells; [1]) | activation (phosphorylation) of Akt by the ligand (Akt; MDA-MB-231 HA-TrkA, 30 min) | activation (phosphorylation) of Src by the ligand (Src; MDA-MB-231 HA-TrkA, 30 min) | invasion induced by proNGF in siRNA-transfected cells (PC3 cells; [2]) | invasion induced by proNGF in siRNA-transfected cells (MDA-MB-231 cells; [2]) | effect on Akt phosphorylation induced by NGF (Akt; [3]) | effect on Src phosphorylation induced by NGF (Src; [3]) | effect on Src activation induced by proNGF (Src; proNGF N.C. 30 min, 10 nM K252a, 15 μM LY294002, 50 nM SKI-1 or siEphA2)
NGF: Nerve Growth Factor; recombinant human β NGF supplied by Scil Proteins | increased cell invasion | increased cell invasion | increased | increased | – | – | – | – | –
siEphA2: siRNA against EphA2, GCAAGGAAGUGGUACUGCUGGACUU (SEQ ID NO: 1) (listed as RNA, chemistry not given here) | – | – | – | – | abolished the invasion induced by proNGF | abolished the invasion induced by proNGF | reduces only the base activation of phospho-Akt and phospho-Src but not the phosphorylation induced by the NGF | reduces only the base activation of phospho-Akt and phospho-Src but not the phosphorylation induced by the NGF | reduced the phosphorylation of Src
